Test results from patent US6299861A, “Ipratropium bromide enantiomer with prolonged duration of effect” (Boehringer Ingelheim KG, priority 1995, dated 2001).

System: acetylcholine-induced bronchospasm
Experiment: Inhibition of acetylcholine-induced bronchospasm in the anaesthetised dog after administration by inhalation
Conditions: aerosol, FIG. 1; for peak inhibition of acetylcholine-induced bronchospasm: 5 μg L-(-)-enantiomer (curve B) or 10 μg racemate (curve A); for time at which peak inhibition of bronchospasm is reached / time until inhibition of bronchospasm has fallen back to initial/starting level: 5 μg L-(-)-enantiomer or 10 μg racemate
Method: 5 μg of the pure L-(-)-enantiomer and, accordingly, 10 μg of the racemate were administered.

Compound: CC(C)[N+]1(C)C2CCC1CC(OC(=O)C(CO)c1ccccc1)C2 (single isomer, unassigned) [BIIH 150 BR, (endo, syn)-(-)-3-(3-hydroxy-l-oxo-2-phenylpropoxy)-8-methyl-8-(1-methylethyl)-8-azoniabicyclo [3,2,1]octane]
- peak inhibition of acetylcholine-induced bronchospasm: 60%
- time at which peak inhibition of bronchospasm is reached: about 10 minutes
- time until inhibition of bronchospasm has fallen back to initial/starting level: 180 min

Compound: CC(C)[N+]1(C)C2CCC1CC(OC(=O)C(CO)c1ccccc1)C2 (stereo not drawn) [Ipratropium bromide]
- peak inhibition of acetylcholine-induced bronchospasm: about 55%
- time at which peak inhibition of bronchospasm is reached: about 10 minutes
- time until inhibition of bronchospasm has fallen back to initial/starting level: 60 min
